Assay results reported in patent US20240217946A1, “ANTIDEPRESSANT AND ANXIOLYTIC SUBSTITUTED CINNAMAMIDE COMPOUND” (TASLY PHARMACEUTICAL GROUP CO., LTD., priority 2021, published 2024).

What was measured:
[1] = system: DA reuptake in rat brain synaptosomes; experiment: 3H-DA reuptake by rat brain synaptosomes; format: biochemical; conditions: 3H-DA 10 nM, rat brain synaptosomes; read-out: DA inhibition rate % IC50
Description: At present, it is believed that absolute or relative deficiencies of the central monoamine neurotransmitters 5-hydroxytryptamine (5-HT), norepinephrine (NA) and dopamine (DA) are closely related to depression and anxiety. This experiment was designed to evaluate, by the method of in vitro monoamine reuptake, the inhibitory effect of two samples of tested compound I-5 and compound M2 on reuptake of 5-HT, NA and DA in rat brain synaptosomes. The preparation of in vitro SD rat brain synaptosomes and isotopic tracer method were employed to investigate IC50 of inhibition of monoamine reuptake of DA, 5-HT and NA in two tested samples, in order to explore the possible mechanism of antidepressant and anxiolytic effects of compound I-5 and compound M2.
Synaptosomes were separated using methods in literature to prepare brain synaptosomes. SD rats were rapidly decapitated with a small animal decapitator. After decapitation, brains were taken out quickly and precooled in an ice-water mixture, and the pia mater and vascular tissue were removed. Brain tissue was taken out. 10 times volume (ml/g) of 10 mM Tris HCl buffer (containing 0.32 M sucrose, pH 7.4) was added, an ultrasonic cell pulverizer was used for homogenization (maintaining at a low temperature), and the brain tissue was homogenized and centrifuged for 10 min (4° C., 1,000 g). After balanced centrifugation (1500 g, 10 min) at 4° C., precipitate was discarded, then supernatant was taken, and centrifugation (20000 g) was performed again for 30 min. The supernatant was discarded and the precipitate, i.e. crude extract of synaptic corpuscles, was retained. […] The precipitate was suspended in a small amount of Kreb's buffer (NaCl 118 mM, KCl 4.7 mM, CaCl2) 2.5 mM, MgSO4 1.2 mM, KH2PO4 1.2 mM, NaHCO325 mM and Glucose 11.1 mM, pH 7.2-7.4), BCA method was used for protein quantification, and the operation steps were as described in the description. […]
The percentage inhibition of isotope ligand binding by each compound was calculated according to the following equation: […]

C57 BL/6 mice = experiment: Mice tail suspension test after single oral administration; format: in vivo; conditions: 30 min after single administration; for Immobility time within 6 min: n = 10, mean ± SD
Description: “Behavioral despair” models were developed by Porsolt et al. in 1977, including rats and mice forced swimming models and mice tail suspension models, which were acute stress models. Mice tail suspension experiment was a simple and easy-to-implement experimental method for evaluating antidepressant drugs introduced by Stern et al. in 1985, and its principle was the same as that of forced swimming “immobility” experiment.
40 mice were divided into 4 groups according to the Excel complete random grouping method, with 10 animals in each group. […] Therefore, in this experimental study, with 30 mg/kg as the low dosage of compound M2, 60 mg/kg was set as the high dosage of compound M2 to conduct research in comparison with 60 mg/kg compound I-5.
Each test group was administered intragastrically (i.g.) at 0.2 ml/10 g body weight.
Mice tail suspension test was carried out 30 min after a single oral administration, and the tail suspension lasted for 6 min. The immobility time of mice within 6 min was recorded.
(§1) Data was expressed as mean±standard (mean±SD) difference, and statistics of data differences were made by one-way analysis of variance (ANOVA) or nonparametric test, and differences between groups were determined by P<0.05.

SD rats = experiment: Vogel drinking conflict experiment in rats, single administration; format: in vivo; conditions: for Number of times of drinking water: 10 mg/kg i.g., 30 min after single dose, punishment stage 3 min, n = 8; for anxiolytic activity in drinking conflict experiment vs solvent control group: single intragastric administration of 20 mg/kg
Protocol: 75 male SD rats, with the body weight of 180-220 g, were fed adaptively for 1 week, water deprived for 24 h for training period test. The animals screened to be qualified were randomly divided into 7 groups (a solvent control group, estazolam group, compound M2 group, compound II-3 group, compound II-4 group, compound II-5 group and compound II-10 group) according to their body weight, with 8 rats in each group. […] results of 3.1: the positive drug estazolam was administered intragastrically at 1.24 mg/kg; and the solvent control group was gavaged with an equal volume of solvent. The grouped animals were continued to be water deprived for 24 h and were given a single dose, and tested in a punishment experiment 30 min after the single dose.
The experiment was carried out in two stages. The first stage is a training stage, in which 24 h after water deprivation, animals were placed in an operation box separately, and were allowed to fully explore until they found the bottle mouth and started to lick water (with an intensity of electric shock being 0 mA), a counter automatically recorded the number of licks within 3 min, and the animals that licked water less than 300 times were eliminated.
Observation index: the number of water licks of rats in the punishment stage.
as §1

Structure (SMILES)	IC50 [1]	Immobility time within 6 min (C57 BL/6 mice; 60 mg/kg i.g.)	effect on immobility time of mice in tail suspension vs blank group (C57 BL/6 mice; 60 mg/kg)	Number of times of drinking water (SD rats)	anxiolytic activity in drinking conflict experiment vs solvent control group (SD rats)	Immobility time within 6 min (C57 BL/6 mice; 30 mg/kg i.g.)	effect on immobility time of mice in tail suspension vs blank group (C57 BL/6 mice; 30 mg/kg)
CC(C)CNC(=O)/C=C/c1cc2c(c(C(F)(F)F)c1)OCO2 [Compound I-5]	26 ± 1.33 nM	218.0 ± 35.3 s	not significantly affected	478.02 ± 106.32	significant anxiolytic activity		
NC(=O)/C=C/c1cc2c(c(C(F)(F)F)c1)OCO2 [Compound M2]	37.3 ± 1.97 nM	171.8 ± 21.7 s	significantly shortened	527.26 ± 143.66	significant anxiolytic activity	183.9 ± 43.5 s	no statistically significant difference
